Data from patent US3960877A, “N-monosubstituted-2,3-pyridinedicarboxamides, and related compounds” (priority 1974, dated 1976).

Columns and labels:
Assay type in all cases: in vivo
[1] = tested on: undesirable plants of both the monocotyledonous and the dicotyledonous species; experiment: Herbicidal activity, general; settings: for herbicidal activity: 16 pounds per acre; for effective application rate: relative to 3-isopropyl-pyrido[3,2-d]pyrimidine-2,4(1H,3H)-dione, preemergence or postemergence; for order of herbicidal activity: in vivo
Description: All of the 3-substituted compounds of the pyrido [3,2-d]pyrimidine-2,4(1H,3H)-dione and lumazine families made from intermediate amides produced by the method of this invention have an unexpectedly high order of herbicidal activity.
In using the compound, seeds of the types of plants set forth in Table II were sown in fresh soil. In the preemergence test the soil was sprayed with a solution of the test compound immediately after the seeds were planted, and before any noticeable growth developed. The solution was about a 2 percent by weight solution of the compound in acetone and/or alcohol. The compound was applied at the rate of 16 pounds per acre of soil surface.
Approximately 3 weeks after spray application, the herbicidal activity of the compound was determined by visual observation of the treated area in comparison with untreated control areas. These observations are reported below in Table II wherein the average activity rating is reported as the percent control of plant growth.
In the postemergence test the soil and developing plants were sprayed approximately 2 weeks after the seeds were sown. The compound was applied at the rate of 8 pounds per acre from about a 2 percent by weight solution of the test compound in acetone and/or alcohol. The postemergence herbicidal activity was measured in the same way as the preemergence activity; i.e. visual observation approximately 11 days after spraying, and expressed as the percent control of plant growth.

Alfalfa [2] = experiment: Preemergence herbicidal activity, % control of plant growth; settings: Medicago sativa, pre-emergence, 504 h, 16 lb/acre, about 3 weeks
In short: (§1)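 Soil sprayed right after sowing, before visible growth, with about a 2 wt% compound solution in acetone and/or alcohol at 16 lb/acre. Roughly 3 weeks later, activity rated visually against untreated areas as percent control of plant growth.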

Barnyard Grass [3] = experiment: as above; settings: Echinochloa crus-galli, pre-emergence, 504 h; barnyard grass; 16 lb/acre; about 3 weeks
In short: as §1

Cheatgrass [4] = experiment: as above; settings: Bromus tectorum, pre-emergence, 504 h, 16 lb/acre, about 3 weeks
In short: as §1

Chickweed [5] = experiment: as above; settings: pre-emergence, 504 h, 16 lb/acre, about 3 weeks
In short: as §1

Corn [6] = experiment: as above; settings: Zea mays, pre-emergence, 504 h, 16 lb/acre, about 3 weeks
In short: as §1

Crabgrass [7] = experiment: as above; settings: Digitaria sanguinalis, pre-emergence, 504 h, 16 lb/acre, about 3 weeks
In short: as §1

Cucumber [8] = experiment: as above; settings: Cucumis sativus, pre-emergence, 504 h, 16 lb/acre, about 3 weeks
In short: as §1

Curled Dock [9] = experiment: as above; settings: pre-emergence, 504 h, 16 lb/acre, about 3 weeks
In short: as §1

Foxtail [10] = experiment: as above; settings: Setaria, pre-emergence, 504 h, 16 lb/acre, about 3 weeks
In short: as §1

Johnsongrass [11] = experiment: as above; settings: Sorghum halepense, pre-emergence, 504 h, 16 lb/acre, about 3 weeks
In short: as §1

Lambsquarters [12] = experiment: as above; settings: Chenopodium album, pre-emergence, 504 h, 16 lb/acre, about 3 weeks
In short: as §1

Nutgrass [13] = experiment: as above; settings: pre-emergence, 504 h, 16 lb/acre, about 3 weeks
In short: as §1

Pigweed [14] = experiment: as above; settings: Amaranthus retroflexus, pre-emergence, 504 h, 16 lb/acre, about 3 weeks
In short: as §1

Snapbeans [15] = experiment: as above; settings: pre-emergence, 504 h, 16 lb/acre, about 3 weeks
In short: as §1

Velvetleaf [16] = experiment: as above; settings: Abutilon theophrasti, pre-emergence, 504 h, 16 lb/acre, about 3 weeks
In short: as §1

Wild Oats [17] = experiment: as above; settings: Avena fatua, pre-emergence, 504 h, 16 lb/acre, about 3 weeks
In short: as §1

Yellow Rocket [18] = experiment: as above; settings: pre-emergence, 504 h, 16 lb/acre, about 3 weeks
In short: as §1

Alfalfa [19] = experiment: Postemergence herbicidal activity, % control of plant growth; settings: Medicago sativa, post-emergence, 264 h, 8 lb/acre, about 11 days
In short: (§2)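 Plants sprayed about 2 weeks after sowing with compound at 8 lb/acre, applied from roughly 2 wt% solution in acetone and/or alcohol. Growth control rated visually about 11 days after spraying and reported as percent control.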

Barnyard Grass [20] = experiment: as above; settings: Echinochloa crus-galli, post-emergence, 264 h, 8 lb/acre, about 11 days
In short: as §2

Cheatgrass [21] = experiment: as above; settings: Bromus tectorum, post-emergence, 264 h, 8 lb/acre, about 11 days
In short: as §2

Chickweed [22] = experiment: as above; settings: post-emergence, 264 h, 8 lb/acre, about 11 days
In short: as §2

Corn [23] = experiment: as above; settings: Zea mays, post-emergence, 264 h, 8 lb/acre, about 11 days
In short: as §2

Crabgrass [24] = experiment: as above; settings: Digitaria sanguinalis, post-emergence, 264 h, 8 lb/acre, about 11 days
In short: as §2

Cucumber [25] = experiment: as above; settings: Cucumis sativus, post-emergence, 264 h, 8 lb/acre, about 11 days
In short: as §2

Curled Dock [26] = experiment: as above; settings: post-emergence, 264 h, 8 lb/acre, about 11 days
In short: as §2

Foxtail [27] = experiment: as above; settings: Setaria, post-emergence, 264 h, 8 lb/acre, about 11 days
In short: as §2

Johnsongrass [28] = experiment: as above; settings: Sorghum halepense, post-emergence, 264 h, 8 lb/acre, about 11 days
In short: as §2

Lambsquarters [29] = experiment: as above; settings: Chenopodium album, post-emergence, 264 h, 8 lb/acre, about 11 days
In short: as §2

Nutgrass [30] = experiment: as above; settings: post-emergence, 264 h, 8 lb/acre, about 11 days
In short: as §2

Pigweed [31] = experiment: as above; settings: Amaranthus retroflexus, post-emergence, 264 h, 8 lb/acre, about 11 days
In short: as §2

Snapbeans [32] = experiment: as above; settings: post-emergence, 264 h, 8 lb/acre, about 11 days
In short: as §2

Velvetleaf [33] = experiment: as above; settings: Abutilon theophrasti, post-emergence, 264 h, 8 lb/acre, about 11 days
In short: as §2

Wild Oats [34] = experiment: as above; settings: Avena fatua, post-emergence, 264 h, 8 lb/acre, about 11 days
In short: as §2

Yellow Rocket [35] = experiment: as above; settings: post-emergence, 264 h, 8 lb/acre, about 11 days
In short: as §2

SMILES	herbicidal activity [1]	pest or weed control at 17933.6 g/ha (Alfalfa [2]) [%]	pest or weed control at 17933.6 g/ha (Barnyard Grass [3]) [%]	pest or weed control at 17933.6 g/ha (Cheatgrass [4]) [%]	pest or weed control at 17933.6 g/ha (Chickweed [5]) [%]	plant injury at 17933.6 g/ha (Corn [6]) [%]	pest or weed control at 17933.6 g/ha (Crabgrass [7]) [%]	pest or weed control at 17933.6 g/ha (Cucumber [8]) [%]	pest or weed control at 17933.6 g/ha (Curled Dock [9]) [%]	pest or weed control at 17933.6 g/ha (Foxtail [10]) [%]	pest or weed control at 17933.6 g/ha (Johnsongrass [11]) [%]	pest or weed control at 17933.6 g/ha (Lambsquarters [12]) [%]	pest or weed control at 17933.6 g/ha (Nutgrass [13]) [%]	pest or weed control at 17933.6 g/ha (Pigweed [14]) [%]	pest or weed control at 17933.6 g/ha (Snapbeans [15]) [%]	pest or weed control at 17933.6 g/ha (Velvetleaf [16]) [%]	pest or weed control at 17933.6 g/ha (Wild Oats [17]) [%]	pest or weed control at 17933.6 g/ha (Yellow Rocket [18]) [%]	pest or weed control at 8966.8 g/ha (Alfalfa [19]) [%]	pest or weed control at 8966.8 g/ha (Barnyard Grass [20]) [%]	also measured
O=c1[nH]c2ncccc2c(=O)n1C1CCCCC1 [3-cyclohexyl-pyrido[2,3-d]pyrimidine-2,4-(1H,3H)-dione]	no appreciable herbicidal activity																				
O=c1[nH]c2cccnc2c(=O)n1C1CCCCC1 [3-cyclohexyl-pyrido[3,2-d] pyrimidine-2,4(1H,3H)-dione]		100	100	100	100	90	100	100	100	100	100	100	100	100	100	100	100	100	30	100	pest or weed control at 8966.8 g/ha (Cheatgrass [21]): 80%; pest or weed control at 8966.8 g/ha (Chickweed [22]): 100%; plant injury at 8966.8 g/ha (Corn [23]): 40%; pest or weed control at 8966.8 g/ha (Crabgrass [24]): 100%; pest or weed control at 8966.8 g/ha (Cucumber [25]): 100%; pest or weed control at 8966.8 g/ha (Curled Dock [26]): 100%; pest or weed control at 8966.8 g/ha (Foxtail [27]): 100%; pest or weed control at 8966.8 g/ha (Johnsongrass [28]): 100%; pest or weed control at 8966.8 g/ha (Lambsquarters [29]): 100%; pest or weed control at 8966.8 g/ha (Nutgrass [30]): 100%; pest or weed control at 8966.8 g/ha (Pigweed [31]): 100%; pest or weed control at 8966.8 g/ha (Snapbeans [32]): 80%; pest or weed control at 8966.8 g/ha (Velvetleaf [33]): 100%; pest or weed control at 8966.8 g/ha (Wild Oats [34]): 100%; pest or weed control at 8966.8 g/ha (Yellow Rocket [35]): 100%; effective application rate [1]: substantially the same application rates, e.g., as similar or salt solutions in water, are effective
CC(C)n1c(=O)[nH]c2ncccc2c1=O [3-isopropyl-pyrido[2,3-d]pyrimidine-2,4(1H,3H)-dione]	no appreciable herbicidal activity																				order of herbicidal activity [1]: no appreciable activity
CC(C)n1c(=O)[nH]c2cccnc2c1=O [3-isopropyl-pyrido[3,2-d]pyrimidine-2,4(1H,3H)-dione]		100	100	100	100	100	100	100	100	100	100	90	20	100	100	100	100	100	90	80	pest or weed control at 8966.8 g/ha (Cheatgrass [21]): 50%; pest or weed control at 8966.8 g/ha (Chickweed [22]): 70%; plant injury at 8966.8 g/ha (Corn [23]): 30%; pest or weed control at 8966.8 g/ha (Crabgrass [24]): 100%; pest or weed control at 8966.8 g/ha (Cucumber [25]): 100%; pest or weed control at 8966.8 g/ha (Curled Dock [26]): 100%; pest or weed control at 8966.8 g/ha (Foxtail [27]): 100%; pest or weed control at 8966.8 g/ha (Johnsongrass [28]): 90%; pest or weed control at 8966.8 g/ha (Lambsquarters [29]): 100%; pest or weed control at 8966.8 g/ha (Nutgrass [30]): 50%; pest or weed control at 8966.8 g/ha (Pigweed [31]): 100%; pest or weed control at 8966.8 g/ha (Snapbeans [32]): 90%; pest or weed control at 8966.8 g/ha (Velvetleaf [33]): 100%; pest or weed control at 8966.8 g/ha (Wild Oats [34]): 70%; pest or weed control at 8966.8 g/ha (Yellow Rocket [35]): 100%; order of herbicidal activity [1]: high order of activity
CC(C)n1c(=O)[nH]c2cnccc2c1=O [3-isopropyl-pyrido[3,4-d]pyrimidine-2,4(1H,3H)-dione]	no appreciable herbicidal activity																				
CC(C)n1c(=O)[nH]c2ccncc2c1=O [3-isopropyl-pyrido[4,3-d]pyrimidine-2,4(1H,3H)-dione]	no appreciable herbicidal activity																				
O=c1[nH]c2ncccc2c(=O)n1-c1ccccc1 [3-phenyl-pyrido[2,3-d]pyrimidine-2,4(1H,3H)-dione]	no appreciable herbicidal activity																				
CCC(C)n1c(=O)[nH]c2cccnc2c1=O (stereo not drawn) [3-sec-butyl-pyrido[3,2-d] pyrimidine-2,4(1H,3H)-dione]		100	100	100	100	100	100	100	100	100	100	100	100	100	100	100	100	100	100	100	pest or weed control at 8966.8 g/ha (Cheatgrass [21]): 100%; pest or weed control at 8966.8 g/ha (Chickweed [22]): 100%; plant injury at 8966.8 g/ha (Corn [23]): 90%; pest or weed control at 8966.8 g/ha (Crabgrass [24]): 100%; pest or weed control at 8966.8 g/ha (Cucumber [25]): 100%; pest or weed control at 8966.8 g/ha (Curled Dock [26]): 100%; pest or weed control at 8966.8 g/ha (Foxtail [27]): 100%; pest or weed control at 8966.8 g/ha (Johnsongrass [28]): 100%; pest or weed control at 8966.8 g/ha (Lambsquarters [29]): 100%; pest or weed control at 8966.8 g/ha (Nutgrass [30]): 100%; pest or weed control at 8966.8 g/ha (Pigweed [31]): 100%; pest or weed control at 8966.8 g/ha (Snapbeans [32]): 100%; pest or weed control at 8966.8 g/ha (Velvetleaf [33]): 100%; pest or weed control at 8966.8 g/ha (Wild Oats [34]): 100%; pest or weed control at 8966.8 g/ha (Yellow Rocket [35]): 100%; effective application rate [1]: substantially the same application rates, e.g., as similar or salt solutions in water, are effective
